Experiments:
α3L158CG181Cβ2 nAChR [1] = target: T1, α3L158CG181Cβ2 nAChR (Rattus norvegicus, UniProt P04757+P12390, G208C/L185C); assay: MTS-dansyl probing of free sulfhydryls, evoked currents; format: cell-based
α3L158Cβ2 nAChR [2] = target: T2, α3L158Cβ2 nAChR (Rattus norvegicus, UniProt P04757+P12390, L185C); assay: MTS-dansyl treatment, evoked currents; format: cell-based; settings: 5 μM ACh currents
α3G181Cβ2 nAChR [3] = target: T3, α3G181Cβ2 nAChR (Rattus norvegicus, UniProt P04757+P12390, G208C); assay: MTS-dansyl treatment, evoked currents; format: cell-based; settings: 100 μM ACh currents
α3L158Cβ2 nAChR [4] = target: T2, α3L158Cβ2 nAChR; assay: Two-electrode voltage-clamp concentration-response in Xenopus oocytes; format: cell-based
α3A179Cβ2 nAChR = α3A179Cβ2 nAChR (Rattus norvegicus, UniProt P04757+P12390, A179C/A206C); assay: as above; format: cell-based
α3G181Cβ2 nAChR [5] = target: T3, α3G181Cβ2 nAChR; assay: as above; format: cell-based
α3K183Cβ2 nAChR = α3K183Cβ2 nAChR (Rattus norvegicus, UniProt P04757+P12390, K210C); assay: as above; format: cell-based
α3L158CA179Cβ2 nAChR [6] = target: T4, α3L158CA179Cβ2 nAChR (Rattus norvegicus, UniProt P04757+P12390, A206C/L185C); assay: as above; format: cell-based; settings: naïve oocytes
α3L158CG181Cβ2 nAChR [7] = target: T1, α3L158CG181Cβ2 nAChR; assay: as above; format: cell-based
α3L158CK183Cβ2 nAChR [8] = target: T5, α3L158CK183Cβ2 nAChR (Rattus norvegicus, UniProt P04757+P12390, K210C/L185C); assay: as above; format: cell-based
wild type α3β2 nAChR = wild type α3β2 nAChR (Rattus norvegicus, UniProt P04757+P12390); settings: ref Cesa et al., 2012, cited from earlier work
α3L158Cβ2 nAChR [9] = target: T2, α3L158Cβ2 nAChR; assay: Oxidation/reduction treatment, evoked currents; format: cell-based; settings: ACh + Mor currents
α3G181Cβ2 nAChR [10] = target: T3, α3G181Cβ2 nAChR; assay: Oxidation/reduction treatment, evoked currents; format: cell-based; settings: ACh + Mor currents
α3L158CG181Cβ2 nAChR [11] = target: T1, α3L158CG181Cβ2 nAChR; assay: Oxidation/reduction treatment; format: cell-based; settings: for ACh/Mor-evoked current, % of the control: after H2O2 + ACh + Mor oxidation
α3L158CA179Cβ2 nAChR [12] = target: T4, α3L158CA179Cβ2 nAChR; assay: Oxidation/reduction treatment; format: cell-based; settings: for IDTT/Icontrol: 40 μM DTT; for ITCEP/Icontrol: 40 μM TCEP
α3L158CK183Cβ2 nAChR [13] = target: T5, α3L158CK183Cβ2 nAChR; assay: Oxidation/reduction treatment; format: cell-based; settings: for IDTT/Icontrol: DTT treatment; for decrease of ACh-evoked currents: 125 μM ACh challenge
[14] = ACh alone, Hill fit, naïve oocytes
[15] = DTT after treatment with H2O2 only
[16] = ACh + 10 μM Mor, asymptote at saturating ACh, normalized to highest ACh alone
[17] = Mor alone, relative to internal ACh control
[18] = ACh titration + 10 μM Mor, naïve oocytes

T2 sequence (P04757 26-499 L185C): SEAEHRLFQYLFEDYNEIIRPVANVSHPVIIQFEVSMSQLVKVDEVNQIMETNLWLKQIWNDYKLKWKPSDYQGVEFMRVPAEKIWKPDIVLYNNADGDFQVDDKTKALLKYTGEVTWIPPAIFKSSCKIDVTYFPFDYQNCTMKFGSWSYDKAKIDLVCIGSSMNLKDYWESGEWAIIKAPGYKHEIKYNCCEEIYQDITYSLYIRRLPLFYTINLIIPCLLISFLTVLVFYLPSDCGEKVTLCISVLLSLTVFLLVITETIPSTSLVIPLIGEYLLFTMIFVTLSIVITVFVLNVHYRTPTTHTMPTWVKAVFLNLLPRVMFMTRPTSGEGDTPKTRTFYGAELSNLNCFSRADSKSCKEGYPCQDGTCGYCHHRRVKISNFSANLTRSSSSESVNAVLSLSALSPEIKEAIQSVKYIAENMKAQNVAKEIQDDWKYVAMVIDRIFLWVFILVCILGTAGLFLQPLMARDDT
T2 sequence (P12390 25-500): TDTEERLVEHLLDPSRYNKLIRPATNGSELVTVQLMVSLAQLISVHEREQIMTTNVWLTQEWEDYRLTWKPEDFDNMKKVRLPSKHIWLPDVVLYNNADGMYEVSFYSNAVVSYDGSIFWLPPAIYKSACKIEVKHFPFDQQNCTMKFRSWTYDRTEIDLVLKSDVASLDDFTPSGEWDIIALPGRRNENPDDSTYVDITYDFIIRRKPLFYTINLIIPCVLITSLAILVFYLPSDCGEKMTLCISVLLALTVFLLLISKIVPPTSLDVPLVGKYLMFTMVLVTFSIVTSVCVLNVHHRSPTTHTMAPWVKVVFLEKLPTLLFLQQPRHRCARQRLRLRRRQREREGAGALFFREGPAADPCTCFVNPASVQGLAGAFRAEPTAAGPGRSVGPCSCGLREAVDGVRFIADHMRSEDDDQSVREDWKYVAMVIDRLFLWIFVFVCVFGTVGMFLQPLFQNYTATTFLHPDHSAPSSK
T5 sequence (P04757 26-499 L185C/K210C): as the sequence (P04757 26-499 L185C) above, with K185C counted along it
T5 sequence (P12390 25-500): as the sequence (P12390 25-500) above
T4 sequence (P04757 26-499 L185C/A206C): as the sequence (P04757 26-499 L185C) above, with A181C counted along it
T4 sequence (P12390 25-500, stated change not applied): as the sequence (P12390 25-500) above
T3 sequence (P04757 26-499 G208C): as the sequence (P04757 26-499 L185C) above, with C160L, G183C counted along it
T3 sequence (P12390 25-500): as the sequence (P12390 25-500) above
α3A179Cβ2 nAChR, sequence (P04757 26-499 A179C/A206C): as the sequence (P04757 26-499 L185C) above, with A154C, C160L, A181C counted along it
α3A179Cβ2 nAChR, sequence (P12390 25-500, stated change not applied): as the sequence (P12390 25-500) above
T1 sequence (P04757 26-499 L185C/G208C): as the sequence (P04757 26-499 L185C) above, with G183C counted along it
T1 sequence (P12390 25-500): as the sequence (P12390 25-500) above
α3K183Cβ2 nAChR, sequence (P04757 26-499 K210C): as the sequence (P04757 26-499 L185C) above, with C160L, K185C counted along it
α3K183Cβ2 nAChR, sequence (P12390 25-500): as the sequence (P12390 25-500) above
wild type α3β2 nAChR, sequence (P04757 26-499): as the sequence (P04757 26-499 L185C) above, with C160L counted along it
wild type α3β2 nAChR, sequence (P12390 25-500): as the sequence (P12390 25-500) above

CN(C)c1cccc2c(S(=O)(=O)NCCSS(C)(=O)=O)cccc12 [MTS-dansyl, dansylamidoethyl methanesthiosulfonate]
decrease of ACh/Mor-evoked currents by MTS (α3L158CG181Cβ2 nAChR [1]; after H2O2 + ACh + Mor oxidation, 5 μM ACh + 10 μM Mor): 8% | decrease of ACh current after MTS (α3L158CG181Cβ2 nAChR [1]; after H2O2 alone treatment, 5 μM ACh): 27% | decrease of ACh + Mor current after MTS (α3L158CG181Cβ2 nAChR [1]; after H2O2 alone treatment, 5 μM ACh + 10 μM Mor): 21% | decrease of ACh/Mor-evoked currents by MTS (α3L158CG181Cβ2 nAChR [1]; after standard oxidation then 200–300 sec wash, 5 μM ACh + 10 μM Mor): 14% | decrease of ACh-evoked current after MTS-dansyl (α3L158CG181Cβ2 nAChR [1]; naive oocytes, 50 μM MTS-dansyl 2 min, 5 μM ACh): 33% | decrease of ACh/Mor-evoked current after MTS-dansyl (α3L158CG181Cβ2 nAChR [1]; naive oocytes, 50 μM MTS-dansyl 2 min, 5 μM ACh + 10 μM Mor): 14% | decrease of ACh currents after MTS-dansyl (α3L158Cβ2 nAChR [2]): 44 ± 2% | decrease of ACh currents after MTS-dansyl (α3G181Cβ2 nAChR [3]): 21 ± 4%

CC(=O)OCC[N+](C)(C)C [ACh, acetylcholine]
ACh Response nH (α3L158Cβ2 nAChR [4]; ACh alone, Hill fit): 0.80 ± 0.11 [6] ^b | ACh Response nH (α3A179Cβ2 nAChR; ACh alone, Hill fit): 0.79 ± 0.08 [8] | ACh Response nH (α3G181Cβ2 nAChR [5]; ACh alone, Hill fit): 1.10 ± 0.11 [5] | ACh Response nH (α3K183Cβ2 nAChR; ACh alone, Hill fit): 2.43 ± 0.78 [9] | ACh Response nH (α3L158CA179Cβ2 nAChR [6]; ACh alone, Hill fit): 1.19 ± 0.20 [7] | ACh Response nH (α3L158CG181Cβ2 nAChR [7]; [14]): 0.93 ± 0.23 [5] | ACh Response nH (α3L158CK183Cβ2 nAChR [8]; [14]): 1.11 ± 0.14 [6] | ACh Response nH (wild type α3β2 nAChR; ACh alone, Hill fit): 0.75 ± 0.07

O[C@@H](CS)[C@@H](O)CS [DTT]
IDTT/IH2O2 (α3L158Cβ2 nAChR [9]): 0.96 ± 0.17 | IDTT/IH2O2 (α3G181Cβ2 nAChR [10]): 0.96 ± 0.06 | increase of ACh-evoked current (α3L158CG181Cβ2 nAChR [11]; 40 μM DTT 5 min on naive oocytes, prior to H2O2, challenge 100 μM ACh): 25% | IDTT/Icontrol (α3L158CA179Cβ2 nAChR [12]; 24 μM ACh): 1.30 ± 0.08 | IDTT/Icontrol (α3L158CA179Cβ2 nAChR [12]; 24 μM ACh + 10 μM Mor): 1.26 ± 0.07 | IDTT/Icontrol (ACh + Mor) (α3L158CA179Cβ2 nAChR [12]; [15]): 1.06 ± 0.06 | IDTT/Icontrol (ACh) (α3L158CA179Cβ2 nAChR [12]; [15]): 0.99 ± 0.04 | IDTT/Icontrol (ACh + Mor) (α3L158CK183Cβ2 nAChR [13]; DTT post-oxidation): 1.02 ± 0.02 | IDTT/Icontrol (ACh) (α3L158CK183Cβ2 nAChR [13]; DTT post-oxidation): 0.97 ± 0.03 | IDTT/Icontrol (α3L158CK183Cβ2 nAChR [13]; 125 μM ACh): 1.10 ± 0.01 | IDTT/Icontrol (α3L158CK183Cβ2 nAChR [13]; 125 μM ACh + 10 μM Mor): 1.19 ± 0.03

O=C(O)CCP(CCC(=O)O)CCC(=O)O [TCEP, tris(2-carboxyethyl)phosphine]
ITCEP/Icontrol (α3L158CA179Cβ2 nAChR [12]; ACh): 1.21 ± 0.04 | ITCEP/Icontrol (α3L158CA179Cβ2 nAChR [12]; ACh + Mor): 1.24 ± 0.05

OO [H2O2]
IH2O2/Icontrol (α3L158Cβ2 nAChR [9]): 0.78 ± 0.08 | IH2O2/Icontrol (α3G181Cβ2 nAChR [10]): 0.94 ± 0.03 | decrease of ACh-evoked current (α3L158CG181Cβ2 nAChR [11]; 4.4 mM H2O2 + 100 μM ACh + 10 μM Mor, 5 min, challenge 100 μM ACh): 26% | decrease of ACh + Mor-evoked current (α3L158CG181Cβ2 nAChR [11]; 4.4 mM H2O2 + 100 μM ACh + 10 μM Mor, 5 min, challenge 100 μM ACh + 10 μM Mor): 26% | effect on ACh-evoked currents (α3L158CG181Cβ2 nAChR [11]; 4.4 mM H2O2 alone, 5 min, challenge 100 μM ACh): no apparent effect | decrease of currents evoked by ACh and Mor (α3L158CG181Cβ2 nAChR [11]; 4.4 mM H2O2 alone, 5 min, challenge 100 μM ACh + 10 μM Mor): 24% | decrease of ACh-evoked current relative to post-reduction value (α3L158CG181Cβ2 nAChR [11]; H2O2 + ACh + Mor oxidation after DTT, challenge 100 μM ACh): 52% | decrease of ACh/Mor-evoked current relative to post-reduction value (α3L158CG181Cβ2 nAChR [11]; H2O2 + ACh + Mor oxidation after DTT, challenge 100 μM ACh + 10 μM Mor): 46% | Ipost-oxidation/Icontrol (α3L158CG181Cβ2 nAChR [11]; H2O2 + ACh + Mor treatment, 5 μM ACh currents (MTS probing experiments)): 0.66 ± 0.05 | ACh/Mor-evoked current, % of the control (α3L158CG181Cβ2 nAChR [11]; challenges every 100 sec, first response): about 60% | ACh/Mor-evoked current, % of the control (α3L158CG181Cβ2 nAChR [11]; five successive challenges in 500 sec): ≤ 80% | decrease of evoked currents (α3L158CA179Cβ2 nAChR [12]; two oxidation conditions (H2O2 alone; H2O2 + ACh + Mor), two challenges (24 μM ACh; 24 μM ACh + 10 μM Mor)): 25–28% | decrease of ACh-evoked currents (α3L158CK183Cβ2 nAChR [13]; H2O2 + ACh + Mor treatment): 28% | decrease of ACh-evoked currents (α3L158CK183Cβ2 nAChR [13]; H2O2 alone treatment): 13%

Cc1ccsc1C=CC1=NCCCN1C.O=C(O)C(O)C(O)C(=O)O [Mor, 1,4,5,6-tetrahydro-1-methyl-2-(2-[3-methyl-2-thienyl]ethenyl)pyrimidine, tartrate salt]
EC50 (α3L158Cβ2 nAChR [4]): 12 ± 7 µM | Mor Modulation Response Emax (α3L158Cβ2 nAChR [4]; [16]): 1.6 ± 0.1 | Mor Modulation Response nH (α3L158Cβ2 nAChR [4]; ACh titration + 10 μM Mor): 1.47 ± 0.39 | Emax, activation by Mor alone (α3L158Cβ2 nAChR [4]; [17]): 0.021 ± 0.002 | Mor Modulation Response Emax (α3A179Cβ2 nAChR; [16]): 1.6 ± 0.1 | Mor Modulation Response nH (α3A179Cβ2 nAChR; ACh titration + 10 μM Mor): 1.79 ± 0.75 | EC50 (α3G181Cβ2 nAChR [5]): 41 ± 26 µM | Mor Modulation Response Emax (α3G181Cβ2 nAChR [5]; [16]): 2.3 ± 0.1 | Mor Modulation Response nH (α3G181Cβ2 nAChR [5]; ACh titration + 10 μM Mor): 1.08 ± 0.12 | Emax, activation by Mor alone (α3G181Cβ2 nAChR [5]; [17]): 0.32 ± 0.05 | Mor potentiation (α3K183Cβ2 nAChR; ACh + 10 μM Mor vs ACh alone): negligible Mor potentiation | Mor Modulation Response Emax (α3K183Cβ2 nAChR; [16]): 0.97 ± 0.02 | Mor Modulation Response nH (α3K183Cβ2 nAChR; ACh titration + 10 μM Mor): 1.61 ± 0.22 | Mor Modulation Response nH (α3L158CA179Cβ2 nAChR [6]; ACh titration + 10 μM Mor): 1.70 ± 0.50 | EC50 (α3L158CG181Cβ2 nAChR [7]): 28 ± 10 µM | Mor Modulation Response nH (α3L158CG181Cβ2 nAChR [7]; [18]): 1.18 ± 0.25 | Emax, activation by Mor alone (α3L158CG181Cβ2 nAChR [7]; [17]): 0.074 ± 0.009 | Mor potentiation (α3L158CK183Cβ2 nAChR [8]; ACh + 10 μM Mor vs ACh alone): effectively no potentiation | Mor Modulation Response nH (α3L158CK183Cβ2 nAChR [8]; [18]): 0.95 ± 0.16 | Mor Modulation Response nH (wild type α3β2 nAChR; ACh titration + 10 μM Mor): 1.37 ± 0.80
